Experimental data as given in article PMC3892053, “Pharmacokinetic/pharmacodynamic modeling for the determination of a cimicoxib dosing regimen in the dog” (BMC Veterinary Research, 2013).

Tested on: kaolin-induced paw inflammation
Experiment: Kaolin paw inflammation model, observed antipyretic, analgesic and anti-inflammatory effects
Assay type: in vivo, dog
Settings: oral 2 mg/kg; for Maximum effect, analgesia (paw withdrawal time to heat stimulus): 100% = control without inflammation, 2 mg/kg; for Maximum effect, body temperature: % improvement (100% = return to control); for Total duration of the effect, body temperature: time effects superior to placebo
Text: The 12 dogs were regularly trained to get accustomed to experimental and measurements conditions for at least one month before the beginning of the experiment. Furthermore, all the investigators involved received a special training for endpoints measurements. The paw inflammation model used was the kaolin model (1.55 g of Kaolin aseptically injected in the skin under general anesthesia, [15]). The measured endpoints used to evaluate the antipyretic, analgesic and anti-inflammatory effects of the NSAID were the body temperature, the paw circumference, the time to perform a creeping test under a tunnel, the lameness score, the vertical force of the paw on force plates (normalized to the dog’s body weight), the thermal pain threshold and the plantar skin temperature. For body temperature a single measurement was obtained at each time using an electronic thermometer. Paw circumference duplicate measures per time point was done just above the pad using a measuring tape (DMC, Colmar, France). Skin plantar temperature was measured (in degrees Celsius) using an infrared thermometer (Raynger M. Raytek, Fisher Bioblock Scientific - Illkirch – France) at a reference site on the plantar face of the paw, at six different times for each day and measures were performed in triplicate. Data used was the average of the three measurements performed at each time point. Creeping time was measured (in seconds) in a tunnel 6.38 m long, using a stopwatch (digital stopwatch) in triplicate for each time point and creeping speed (m/s) was used as the final measurement for this endpoint. Lameness score was assessed using a numerical rating scale as developed by Giraudel et al.. Vertical normalized force i.e. the maximal vertical force applied on the ground by a hind limb was measured with force plates (SATEL Veto; Patrick Savet, Blagnac, France); for each measurement time, three measures were recorded, the mean values were normalized to the dog’s body weight (Fmax/b.wt., kg/kg) and used in the data analyses. Pain was assessed using a hind paw thermal escape model. The model consisted of exposing the hind limb to a light beam delivered by a Hargreaves apparatus (model 390; IITC Inc., Woodlands Hills, CA). A heat intensity corresponding to 15% of the peak heating value of 150 W was selected. The paw withdrawal time (in seconds) was measured. For each trial, three measures were recorded per measurement time, and the mean of the three measures was used in the data analysis.
The study was conducted according to a classical 2×2 crossover design. Briefly, in period one, half of the dog (3 males and 3 females), received a single oral dose of cimicoxib (approximately 2 mg/kg, one 20 mg capsules – Vetoquinol Lure france) 26.5 h after the induction of kaolin inflammation on the left paw; the other half dogs received a placebo treatment at the same time. In period 2, treatments were crossed over for each dog and inflammation was induced on the right paw. A wash-out delay of at least 5 weeks was applied between the two periods. The treatment (cimicoxib or placebo) was blinded to the investigators.
At least three days before the induction of kaolin inflammation, the PD endpoints were measured twice on the same day to generate negative control values. These endpoints were also measured at 23.5 and 25.5 h after the induction of the inflammation (i.e. before the treatment) to generate positive control values. Subsequently, the PD endpoints were measured at 2, 4, 9, 15 hours after administration (measures on all dogs) and at 22 h and 27 h after administration depending on the presence of further cimicoxib activity.
For PD analysis, a percentage of improvement was calculated for all endpoints (except for the lameness score) following Equation 2:
(2) %improvement=T^+-M/T^+-T^-*100 […]

[1] = the two groups of dogs together

SMILES: COc1ccc(-c2c(Cl)ncn2-c2ccc(S(N)(=O)=O)cc2)cc1F [cimicoxib]
- Duration of the maximal effect, analgesia (EM dogs): 7 h (from 2.9 to 9.8 h)
- Duration of the maximal effect, body temperature (EM dogs): 7 h (from 2.1 to 9.1 h)
- Duration of the maximal effect, creeping speed (EM dogs): 7 h (from 2.2 to 9.2 h)
- Duration of the maximal effect, paw circumference (EM dogs): 9 h (from 2.2 to 11.2 h)
- Duration of the maximal effect, skin plantar temperature (EM dogs): 7 h (from 2.3 to 9.3 h)
- Duration of the maximal effect, vertical normalized force (EM dogs): 6.9 h (from 2.6 to 9.5 h)
- Total duration of the effect, creeping speed (EM dogs): 15 h
- Total duration of the effect, paw circumference (EM dogs): 15 h
- Total duration of the effect, skin plantar temperature (EM dogs): 13 h
- Total duration of the effect, vertical normalized force (EM dogs): 16 h
- Maximum effect, analgesia (paw withdrawal time to heat stimulus) (EM dogs): 232 ± 45%
- Maximum effect, creeping speed (EM dogs, % improvement): 76 ± 9%
- Maximum effect, paw circumference (EM dogs, % improvement): 14 ± 2%
- Maximum effect, skin plantar temperature (EM dogs, % improvement): 38 ± 6%
- Maximum effect, vertical normalized force (EM dogs, % improvement): 68 ± 7%
- Maximum effect, body temperature (EM dogs): 84 ± 8%
- Total duration of the effect, body temperature (EM dogs): 13 h
- Duration of the maximal effect, analgesia (PM dogs): 8.8 h (from 2.9 to 11.8 h)
- Duration of the maximal effect, body temperature (PM dogs): 19.6 h (from 2.1 to 21.7)
- Duration of the maximal effect, clinical lameness score (PM dogs): 10.9 h (from 4.8 to 15.7 h)
- Duration of the maximal effect, creeping speed (PM dogs): 11.1 h (from 4.2 to 15.3 h)
- Duration of the maximal effect, paw circumference (PM dogs): 7 h (from 4.2 to 11.2 h)
- Duration of the maximal effect, vertical normalized force (PM dogs): 11.1 h (from 4.5 to 15.5 h)
- Maximum effect, skin plantar temperature (PM dogs): No plateau observed
- Total duration of the effect, analgesia (PM dogs): 23 h
- Total duration of the effect, creeping speed (PM dogs): 25 h
- Total duration of the effect, paw circumference (PM dogs): 20 h
- Total duration of the effect, skin plantar temperature (PM dogs): 22 h
- Total duration of the effect, vertical normalized force (PM dogs): 28 h
- Maximum effect, analgesia (paw withdrawal time to heat stimulus) (PM dogs): 152 ± 53%
- Maximum effect, creeping speed (PM dogs, % improvement): 77 ± 7%
- Maximum effect, paw circumference (PM dogs, % improvement): 15 ± 3%
- Maximum effect, vertical normalized force (PM dogs, % improvement): 67 ± 6%
- Maximum effect, body temperature (PM dogs): 87 ± 9%
- Total duration of the effect, body temperature (PM dogs): 25 h
- overall maximal effect, body temperature [1]: 86%
- overall maximal effect, creeping speed [1]: 76%
